From ChEMBL document CHEMBL1201862, “PubChem BioAssay data set” (2004)
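Assay format: 96-well plates, 48-hour exposure. Abbreviation: GI50, concentration required for 50% inhibition of growth.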 Active and inactive are the calls of the source. Cut-off read from the data, not from the text of the source: active = GI50 up to about 1.1 µM and inactive = higher.

Legend:
Assay in all cases: NCI-60 cell line screen, 48 h
[1] = system: LOX IMVI
[2] = system: OVCAR-4
[3] = system: RXF 393
[4] = system: MDA-MB-435
[5] = system: K562
[6] = system: EKVX
[7] = system: SF-295
[8] = system: RPMI-8226
[9] = system: HCT-15
[10] = system: SF-268
[11] = system: HCC 2998
[12] = system: A549
[13] = system: OVCAR-8
[14] = system: ACHN
[15] = system: SK-OV-3
[16] = system: UACC-257
[17] = system: DU-145
[18] = system: HOP-62
[19] = system: TK-10
[20] = system: BT-549
[21] = system: MDA-MB-231
[22] = system: SNB-75
[23] = system: NCI-H226
[24] = system: HCT-116
[25] = system: M14
[26] = system: SR
[27] = system: Hs-578T
[28] = system: U-251
[29] = system: SNB-19
[30] = system: HT-29
[31] = system: 786-0
[32] = system: UO-31
[33] = system: MOLT-4
[34] = system: MDA-N
[35] = system: CCRF-CEM
[36] = system: PC-3
[37] = system: Malme-3M
[38] = system: NCI-H23
[39] = system: NCI/ADR-RES
[40] = system: NCI-H460
[41] = system: UACC-62
[42] = system: OVCAR-5
[43] = system: SK-MEL-28
[44] = system: SF-539
[45] = system: CAKI-1
[46] = system: OVCAR-3
[47] = system: SK-MEL-5
[48] = system: COLO 205
[49] = system: T47D
[50] = system: A498
[51] = system: KM12
[52] = system: NCI-H522
[53] = system: SN12C
[54] = system: HL-60
[55] = system: SW-620
[56] = system: IGROV-1
[57] = system: SK-MEL-2
[58] = system: MCF7
[59] = system: HOP-92

## Cn1c(=O)c2[nH]c(/N=N\n3ccc4ccccc43)nc2n(C)c1=O
[1]
  GI50: > 100 µM (inactive)
[2]
  GI50: > 100 µM (inactive)
[3]
  GI50: > 100 µM (inactive)
[4]
  GI50: > 100 µM (inactive)
[5]
  GI50: > 100 µM (inactive)
[6]
  GI50: > 100 µM (inactive)
[7]
  GI50: > 100 µM (inactive)
[8]
  GI50: > 100 µM (inactive)
[9]
  GI50: > 100 µM
[10]
  GI50: > 100 µM (inactive)
[11]
  GI50: > 100 µM (inactive)
[12]
  GI50: > 100 µM (inactive)
[13]
  GI50: > 100 µM (inactive)
[14]
  GI50: > 100 µM (inactive)
[15]
  GI50: > 100 µM (inactive)
[16]
  GI50: > 100 µM (inactive)
[17]
  GI50: > 100 µM (inactive)
[18]
  GI50: > 100 µM (inactive)
[19]
  GI50: > 100 µM (inactive)
[20]
  GI50: > 100 µM (inactive)
[21]
  GI50: > 100 µM (inactive)
[22]
  GI50: > 100 µM (inactive)
[23]
  GI50: > 100 µM (inactive)
[24]
  GI50: > 100 µM (inactive)
[25]
  GI50: > 100 µM (inactive)
[26]
  GI50: > 100 µM (inactive)
[27]
  GI50: > 100 µM (inactive)
[28]
  GI50: > 100 µM (inactive)
[29]
  GI50: > 100 µM (inactive)
[30]
  GI50: > 100 µM (inactive)
[31]
  GI50: > 100 µM (inactive)
[32]
  GI50: > 100 µM (inactive)
[33]
  GI50: > 100 µM (inactive)
[34]
  GI50: > 100 µM (inactive)
[35]
  GI50: > 100 µM (inactive)
[36]
  GI50: > 100 µM (inactive)
[37]
  GI50: > 100 µM (inactive)
[38]
  GI50: > 100 µM (inactive)
[39]
  GI50: > 100 µM (inactive)
[40]
  GI50: > 100 µM (inactive)
[41]
  GI50: > 100 µM (inactive)
[42]
  GI50: > 100 µM (inactive)
[43]
  GI50: > 100 µM (inactive)
[44]
  GI50: > 100 µM (inactive)
[45]
  GI50: > 100 µM (inactive)
[46]
  GI50: > 100 µM (inactive)
[47]
  GI50: > 100 µM (inactive)
[48]
  GI50: > 100 µM (inactive)
[49]
  GI50: > 100 µM (inactive)
[50]
  GI50: > 100 µM (inactive)
[51]
  GI50: > 100 µM (inactive)
[52]
  GI50: > 100 µM (inactive)
[53]
  GI50: > 100 µM (inactive)
[54]
  GI50: > 100 µM (inactive)
[55]
  GI50: > 100 µM (inactive)

## Cc1cccc2c(O)c3c(O)cc(O)cc3nc12
[1]
  GI50: > 10 µM (inactive)
[2]
  GI50: > 10 µM (inactive)
[3]
  GI50: > 10 µM (inactive)
[4]
  GI50: > 10 µM (inactive)
[5]
  GI50: > 10 µM (inactive)
[6]
  GI50: > 10 µM (inactive)
[7]
  GI50: > 10 µM (inactive)
[8]
  GI50: > 10 µM (inactive)
[9]
  GI50: > 10 µM
[10]
  GI50: > 10 µM (inactive)
[11]
  GI50: > 10 µM (inactive)
[12]
  GI50: > 10 µM (inactive)
[13]
  GI50: > 10 µM (inactive)
[14]
  GI50: > 10 µM (inactive)
[15]
  GI50: > 10 µM (inactive)
[16]
  GI50: > 10 µM (inactive)
[17]
  GI50: > 10 µM (inactive)
[18]
  GI50: > 10 µM (inactive)
[56]
  GI50: > 10 µM (inactive)
[19]
  GI50: > 10 µM (inactive)
[20]
  GI50: 3.61 µM (inactive)
[21]
  GI50: > 10 µM (inactive)
[22]
  GI50: 7.24 µM (inactive)
[23]
  GI50: > 10 µM (inactive)
[24]
  GI50: > 10 µM (inactive)
[25]
  GI50: > 10 µM (inactive)
[27]
  GI50: > 10 µM (inactive)
[28]
  GI50: > 10 µM (inactive)
[29]
  GI50: > 10 µM (inactive)
[30]
  GI50: > 10 µM (inactive)
[31]
  GI50: > 10 µM (inactive)
[32]
  GI50: > 10 µM (inactive)
[33]
  GI50: > 10 µM (inactive)
[57]
  GI50: > 10 µM (inactive)
[34]
  GI50: > 10 µM (inactive)
[35]
  GI50: > 10 µM (inactive)
[36]
  GI50: > 10 µM (inactive)
[37]
  GI50: > 10 µM (inactive)
[38]
  GI50: > 10 µM (inactive)
[39]
  GI50: > 10 µM (inactive)
[40]
  GI50: > 10 µM (inactive)
[41]
  GI50: > 10 µM (inactive)
[42]
  GI50: > 10 µM (inactive)
[43]
  GI50: > 10 µM (inactive)
[58]
  GI50: > 10 µM (inactive)
[44]
  GI50: 6.12 µM (inactive)
[45]
  GI50: > 10 µM (inactive)
[59]
  GI50: > 10 µM (inactive)
[46]
  GI50: > 10 µM (inactive)
[47]
  GI50: 9.71 µM (inactive)
[48]
  GI50: > 10 µM (inactive)
[49]
  GI50: > 10 µM (inactive)
[50]
  GI50: > 10 µM (inactive)
[51]
  GI50: > 10 µM (inactive)
[52]
  GI50: > 10 µM (inactive)
[53]
  GI50: > 10 µM (inactive)
[55]
  GI50: > 10 µM (inactive)
